From patent US11992536B2, “Dual-targeting compound and preparation method and application thereof” (YANTAI LANNACHENG BIOTECHNOLOGY CO., LTD., priority 2022, dated 2024) come the findings set out here.

The IC50 is the midpoint of a concentration-inhibition curve. A high value points to weaker potency in that assay.

One test has as its target T1, FAP (Homo sapiens, UniProt Q12884).
T1 construct: expressed in transfected cells; host or cells: HT1080-FAP tumor cells
T1 sequence (Q12884 1-760): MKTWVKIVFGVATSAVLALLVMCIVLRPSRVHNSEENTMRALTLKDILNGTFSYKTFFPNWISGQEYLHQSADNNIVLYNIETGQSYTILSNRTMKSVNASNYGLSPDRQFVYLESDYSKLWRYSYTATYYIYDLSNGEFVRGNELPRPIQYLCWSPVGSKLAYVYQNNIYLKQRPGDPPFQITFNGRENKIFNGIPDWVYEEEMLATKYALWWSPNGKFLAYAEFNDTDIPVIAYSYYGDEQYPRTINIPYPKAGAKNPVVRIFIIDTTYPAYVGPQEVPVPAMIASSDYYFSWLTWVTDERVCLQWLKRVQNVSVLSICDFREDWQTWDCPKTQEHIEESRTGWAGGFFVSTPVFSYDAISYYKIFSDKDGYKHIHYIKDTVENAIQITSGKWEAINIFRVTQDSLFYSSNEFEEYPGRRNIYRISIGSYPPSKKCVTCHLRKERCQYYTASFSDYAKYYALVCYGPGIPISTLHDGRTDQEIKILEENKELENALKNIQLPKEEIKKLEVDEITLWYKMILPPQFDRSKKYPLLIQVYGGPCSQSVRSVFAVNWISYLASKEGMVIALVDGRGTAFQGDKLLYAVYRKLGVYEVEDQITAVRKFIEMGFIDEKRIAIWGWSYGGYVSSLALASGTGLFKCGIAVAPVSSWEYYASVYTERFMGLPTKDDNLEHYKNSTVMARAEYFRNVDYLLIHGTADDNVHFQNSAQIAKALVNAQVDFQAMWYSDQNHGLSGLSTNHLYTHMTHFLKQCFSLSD
Description: Cell binding experiment in HT1080-FAP tumor cells (FIG. 11B). To be noted: cell experiment of HT1080-FAP.

In a further test the test system is HT1080-FAP tumor cells. Description: Cell uptake and blocking experiment in HT1080-FAP tumor cells. The format is cell-based. The note with it: blocking experiment.

Take `N#C[C@@H]1CCCN1C(=O)CNC(=O)c1ccnc2ccc(OCCCN3CCN(C(=O)CCOCCOCCNC(=O)[C@H](CCC(=O)NCCOCCOCCC(=O)NCCCC[C@@H]4NC(=O)[C@@H](Cc5ccccc5)NC(=O)[C@H](CC(=O)O)NC(=O)CNC(=O)[C@H](CCCNC(=N)N)NC4=O)NC(=O)CN4CCN(CC(=O)O)CCN(CC(=O)O)CC4)CC3)cc12` [68Ga-FAPI-RGD, metal not drawn]: the IC50 at FAP was found to be 11.2 nM. In the case of C(RGDfK), the “blocking of the cell uptake of 68Ga-FAPI-RGD” value in the test with HT1080-FAP tumor cells was “partially inhibited”. For the compound `N#C[C@@H]1CCCN1C(=O)CNC(=O)c1ccnc2ccc(OCCCN3CCN(C(=O)CN4CCN(CC(=O)O)CCN(CC(=O)O)CCN(CC(=O)O)CC4)CC3)cc12` [FAPI-02], the “blocking of the cell uptake of 68Ga-FAPI-RGD” value with HT1080-FAP tumor cells is “partially inhibited”.
